In brackets after ≈: the same amount, converted by molar mass. Like-named read-outs stand apart in the source and are kept apart here. Peptide text beside a SMILES is read from it.
Legend:
Hemolytic assay = assay type: cell-based, human; details: human, human red blood cells, 2% (v/v)
In short: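 Washed hRBCs (2% v/v) exposed to peptide for 1 h at 37 °C, then centrifuged and hemoglobin in supernatant read at 545 nm. Lysis normalized to Triton X-100 (2% or 1%; 100%) and PBS (0%); HL50 is the peptide concentration giving 50% lysis, and CSI is HL50/MIC.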

P. aeruginosa PAO1 = assay type: cell-based, Pseudomonas aeruginosa
In short: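 Broth microdilution in tryptic soy broth: log-phase cultures (OD600 ≈0.5) diluted to OD600 0.001, given two-fold peptide dilutions, incubated overnight at 37° C. Growth read at 630 nm.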

S. aureus USA300 = experiment: microbe, parasite or virus in culture; assay type: cell-based, Staphylococcus aureus
In short: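 Broth microdilution: log-phase cultures in tryptic soy broth diluted to OD600 0.001, exposed to two-fold diluted peptides at 37° C overnight, growth read at 630 nm. Medium effects on S. aureus USA300 tested with up to 200 mM NaCl, 2 mM CaCl2, 5-10% human serum, mouse plasma, fluids or tissue homogenate supernatants.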

E. coli ATCC 25922 = assay type: cell-based, Escherichia coli
In short: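 Broth microdilution: log-phase E. coli diluted to OD600 0.001 and exposed to two-fold serial peptide dilutions overnight at 37 °C. Growth read at 630 nm.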

[1] = system: Klebsiella pneumoniae clinical strains; experiment: microbe, parasite or virus in culture; details: Klebsiella pneumoniae
Experimental: The antibacterial activity of peptides was evaluated using a standard broth microdilution protocol with minor modifications (Mishra, et al. (2017) Acta Biomater., 49:316-328). In brief, logarithmic phase bacterial cultures (i.e., optical density at 600 nm≈0.5) were diluted to 0.001 OD and aliquoted 90 μL per well into a 96-well polystyrene microplate. Added 10 μL peptides per well with various concentrations, plates were incubated at 37° C., overnight. Post incubation the plates are read at 630 nm using a ChroMate® Microplate Reader (GMI). […] To study the influence of medium conditions on the antimicrobial activity of peptides against S. aureus USA300 at different pHs (6.8, 7.2, and 8.0), 150 mM sodium chloride (NaCl), 5-10% of human serum, mouse plasma, and peritoneal fluid were included into the assays.

[2] = Table 4, quantitated based on weight

CC(C)C[C@H](NC(=O)[C@H](CC(C)C)NC(=O)[C@H](CCCCN)NC(=O)[C@H](CC(C)C)NC(=O)CNC(=O)[C@H](CC(C)C)NC(=O)[C@H](CCCCN)NC(=O)[C@H](CC(C)C)NC(=O)[C@H](CC(C)C)NC(=O)[C@H](CC(C)C)NC(=O)[C@H](CCCCN)NC(=O)[C@H](CC(C)C)NC(=O)[C@@H](N)CCCCN)C(N)=O [DFT565, KLKLLLKLGLKLL] (H-KLKLLLKLGLKLL-NH2; N-terminus and C-terminus assumed)
HC50 at 1 h (Hemolytic assay): 50 µM
MIC PA (P. aeruginosa PAO1) (P. aeruginosa PAO1; PAO1): >25 µM
MIC (S. aureus USA300; USA300): 3.1 µM (≈ 4.63 µg/mL)
MIC SA (S. aureus USA300) (S. aureus USA300; USA300): 0.8 µM (≈ 1.19 µg/mL)
MIC (S. aureus USA300; USA300, pH 6.8): 3.1 to 6.2 µM
MIC (S. aureus USA300; USA300, pH 7.4): 3.1 µM (≈ 4.63 µg/mL)
MIC (S. aureus USA300; USA300, pH 8): 3.1 µM (≈ 4.63 µg/mL)
MIC EC (E. coli ATCC 25922) (E. coli ATCC 25922; ATCC 25922): >25 µM

CC(C)C[C@H](NC(=O)[C@H](CC(C)C)NC(=O)[C@H](CCCCN)NC(=O)[C@H](CC(C)C)NC(=O)CNC(=O)[C@H](CC(C)C)NC(=O)[C@H](CO)NC(=O)[C@H](CC(C)C)NC(=O)[C@H](CC(C)C)NC(=O)[C@H](CC(C)C)NC(=O)[C@H](CO)NC(=O)[C@H](CC(C)C)NC(=O)[C@@H](N)CCCCN)C(N)=O [DFT560, KLSLLLSLGLKLL] (H-KLSLLLSLGLKLL-NH2; N-terminus and C-terminus assumed)
HC50 at 1 h (Hemolytic assay): 25 µM
MIC PA (P. aeruginosa PAO1) (P. aeruginosa PAO1; PAO1): >25 µM
MIC SA (S. aureus USA300) (S. aureus USA300; [2]): 1.6 µM (≈ 2.26 µg/mL)
MIC EC (E. coli ATCC 25922) (E. coli ATCC 25922; ATCC 25922): >25 µM

CC(C)C[C@H](NC(=O)[C@H](CCCCN)NC(=O)CNC(=O)[C@H](CC(C)C)NC(=O)[C@H](CC(C)C)NC(=O)[C@H](CC(C)C)NC(=O)[C@H](CO)NC(=O)[C@H](CC(C)C)NC(=O)[C@H](CC(C)C)NC(=O)[C@H](CC(C)C)NC(=O)[C@H](CO)NC(=O)[C@H](CC(C)C)NC(=O)CN)C(N)=O [DFT504, GLSLLLSLLLGKL] (H-GLSLLLSLLLGKL-NH2; N-terminus and C-terminus assumed)
HC50 at 1 h (Hemolytic assay): 8 µM
MIC PA (P. aeruginosa PAO1) (P. aeruginosa PAO1; PAO1): >25 µM
MIC SA (S. aureus USA300) (S. aureus USA300; USA300): 6.2 µM (≈ 8.3 µg/mL)
MIC EC (E. coli ATCC 25922) (E. coli ATCC 25922; ATCC 25922): >25 µM

CC(C)C[C@H](NC(=O)[C@H](CC(C)C)NC(=O)[C@H](CCCCN)NC(=O)[C@H](CC(C)C)NC(=O)CNC(=O)[C@H](CC(C)C)NC(=O)[C@H](CCCCN)NC(=O)[C@H](CC(C)C)NC(=O)[C@H](CC(C)C)NC(=O)[C@H](CC(C)C)NC(=O)[C@H](CCCCN)NC(=O)[C@H](CC(C)C)NC(=O)CN)C(N)=O [DFT564, GLKLLLKLGLKLL] (H-GLKLLLKLGLKLL-NH2; N-terminus and C-terminus assumed)
HC50 at 1 h (Hemolytic assay): < 25 µM
MIC PA (P. aeruginosa PAO1) (P. aeruginosa PAO1; PAO1): >25 µM
MIC (S. aureus USA300; USA300): 3.1 µM (≈ 4.4 µg/mL)
MIC (S. aureus USA300; USA300, pH 6.8): 1.6 µM (≈ 2.27 µg/mL)
MIC (S. aureus USA300; USA300, pH 7.4): 3.1 µM (≈ 4.4 µg/mL)
MIC (S. aureus USA300; USA300, pH 8): 1.6 µM (≈ 2.27 µg/mL)
MIC EC (E. coli ATCC 25922) (E. coli ATCC 25922; ATCC 25922): >25 µM

CC(C)C[C@H](NC(=O)[C@H](CC(C)C)NC(=O)CNC(=O)[C@H](CC(C)C)NC(=O)[C@H](CC(C)C)NC(=O)[C@H](CO)NC(=O)[C@H](CC(C)C)NC(=O)[C@H](CC(C)C)NC(=O)[C@H](CO)NC(=O)[C@H](CC(C)C)NC(=O)[C@H](CC(C)C)NC(=O)[C@H](CCCCN)NC(=O)CN)C(N)=O [DFT527, GKLLSLLSLLGLL] (H-GKLLSLLSLLGLL-NH2; N-terminus and C-terminus assumed)
HC50 at 1 h (Hemolytic assay): 20 µM
MIC PA (P. aeruginosa PAO1) (P. aeruginosa PAO1; PAO1): >25 µM
MIC SA (S. aureus USA300) (S. aureus USA300; USA300): 3.1 µM (≈ 4.15 µg/mL)
MIC EC (E. coli ATCC 25922) (E. coli ATCC 25922; ATCC 25922): >25 µM

CC(C)C[C@H](NC(=O)[C@H](CC(C)C)NC(=O)[C@H](CCCCN)NC(=O)[C@H](CC(C)C)NC(=O)CNC(=O)[C@H](CC(C)C)NC(=O)[C@H](CCCCN)NC(=O)[C@H](CC(C)C)NC(=O)[C@H](CC(C)C)NC(=O)[C@H](CC(C)C)NC(=O)[C@H](CO)NC(=O)[C@H](CC(C)C)NC(=O)CN)C(N)=O [DFT562, GLSLLLKLGLKLL] (H-GLSLLLKLGLKLL-NH2; N-terminus and C-terminus assumed)
HC50 at 1 h (Hemolytic assay): < 25 µM
MIC PA (P. aeruginosa PAO1) (P. aeruginosa PAO1; PAO1): >25 µM
MIC EC (E. coli ATCC 25922) (E. coli ATCC 25922; ATCC 25922): >25 µM

CC(C)C[C@H](NC(=O)[C@H](CC(C)C)NC(=O)[C@H](CCCCN)NC(=O)[C@H](CC(C)C)NC(=O)[C@H](CCCCN)NC(=O)[C@H](CC(C)C)NC(=O)[C@H](CO)NC(=O)[C@H](CC(C)C)NC(=O)[C@H](CC(C)C)NC(=O)[C@H](CC(C)C)NC(=O)[C@H](CO)NC(=O)[C@H](CC(C)C)NC(=O)CN)C(N)=O [DFT563, GLSLLLSLKLKLL] (H-GLSLLLSLKLKLL-NH2; N-terminus and C-terminus assumed)
HC50 at 1 h (Hemolytic assay): > 300 µM
MIC PA (P. aeruginosa PAO1) (P. aeruginosa PAO1; PAO1): >25 µM
MIC SA (S. aureus USA300) (S. aureus USA300; USA300): 6.2 µM (≈ 8.74 µg/mL)
MIC EC (E. coli ATCC 25922) (E. coli ATCC 25922; ATCC 25922): >25 µM

CC(C)C[C@H](NC(=O)[C@H](CC(C)C)NC(=O)[C@H](CCCCN)NC(=O)[C@H](CC(C)C)NC(=O)CNC(=O)[C@H](CC(C)C)NC(=O)[C@H](CO)NC(=O)[C@H](CC(C)C)NC(=O)[C@H](CC(C)C)NC(=O)[C@H](CO)NC(=O)[C@H](CC(C)C)NC(=O)[C@H](CC(C)C)NC(=O)CN)C(N)=O [DFT531, GLLSLLSLGLKLL] (H-GLLSLLSLGLKLL-NH2; N-terminus and C-terminus assumed)
HC50 at 1 h (Hemolytic assay; Table 4, quantitated based on weight, read-out: HL50, peptide concentration for 50% hemolysis): 7 µM
MIC PA (P. aeruginosa PAO1) (P. aeruginosa PAO1; [2]): >25 µM
MIC SA (S. aureus USA300) (S. aureus USA300; [2]): 0.8 µM (≈ 1.07 µg/mL)
MIC EC (E. coli ATCC 25922) (E. coli ATCC 25922; [2]): >25 µM

CC(C)C[C@H](NC(=O)[C@H](CC(C)C)NC(=O)[C@H](CCCCN)NC(=O)[C@H](CC(C)C)NC(=O)CNC(=O)[C@H](CC(C)C)NC(=O)[C@H](CO)NC(=O)[C@H](CC(C)C)NC(=O)[C@H](CC(C)C)NC(=O)[C@H](CO)NC(=O)CNC(=O)[C@H](CC(C)C)NC(=O)[C@@H](N)CC(C)C)C(N)=O [DFT532, LLGSLLSLGLKLL] (H-LLGSLLSLGLKLL-NH2; N-terminus and C-terminus assumed)
HC50 at 1 h (Hemolytic assay): 13 µM
MIC PA (P. aeruginosa PAO1) (P. aeruginosa PAO1; PAO1): >25 µM
MIC SA (S. aureus USA300) (S. aureus USA300; USA300): 1.6 µM (≈ 2.14 µg/mL)
MIC EC (E. coli ATCC 25922) (E. coli ATCC 25922; ATCC 25922): >25 µM

CC(C)C[C@H](NC(=O)[C@H](CC(C)C)NC(=O)[C@H](CCCCN)NC(=O)CNC(=O)[C@H](CC(C)C)NC(=O)[C@H](CC(C)C)NC(=O)[C@H](CO)NC(=O)[C@H](CC(C)C)NC(=O)[C@H](CC(C)C)NC(=O)[C@H](CC(C)C)NC(=O)[C@H](CO)NC(=O)[C@H](CC(C)C)NC(=O)CN)C(N)=O [DFT502, GLSLLLSLLGKLL] (H-GLSLLLSLLGKLL-NH2; N-terminus and C-terminus assumed)
HC50 at 1 h (Hemolytic assay): 3.1 µM
MIC PA (P. aeruginosa PAO1) (P. aeruginosa PAO1; PAO1): >25 µM
MIC SA (S. aureus USA300) (S. aureus USA300; USA300): 1.6 µM (≈ 2.14 µg/mL)
MIC EC (E. coli ATCC 25922) (E. coli ATCC 25922; ATCC 25922): >25 µM

CC(C)C[C@H](NC(=O)[C@H](CC(C)C)NC(=O)[C@H](CCCCN)NC(=O)CNC(=O)[C@H](CC(C)C)NC(=O)[C@H](CC(C)C)NC(=O)[C@H](CC(C)C)NC(=O)[C@H](CC(C)C)NC(=O)[C@H](CO)NC(=O)[C@H](CO)NC(=O)[C@H](CC(C)C)NC(=O)[C@H](CC(C)C)NC(=O)CN)C(N)=O [DFT505, GLLSSLLLLGKLL] (H-GLLSSLLLLGKLL-NH2; N-terminus and C-terminus assumed)
HC50 at 1 h (Hemolytic assay): 20 µM
MIC PA (P. aeruginosa PAO1) (P. aeruginosa PAO1; PAO1): >25 µM
MIC SA (S. aureus USA300) (S. aureus USA300; USA300): 3.1 µM (≈ 4.15 µg/mL)
MIC EC (E. coli ATCC 25922) (E. coli ATCC 25922; ATCC 25922): >25 µM

CN(C)c1cc(NC(=O)CNC(C)(C)C)c(O)c2c1C[C@H]1C[C@H]3[C@H](N(C)C)C(O)=C(C(N)=O)C(=O)[C@@]3(O)C(O)=C1C2=O [Tigecycline, reference compound]
MIC ([1]; strain KP-231-18): 4 µM (≈ 2.34 µg/mL)
MIC ([1]; strain KP-232-18): 8 µM (≈ 4.69 µg/mL)
MIC ([1]; strain KP-245-18): 4 µM (≈ 2.34 µg/mL)
MIC ([1]; strain KP-249-18): 2 µM (≈ 1.17 µg/mL)
MIC ([1]; strain KP-253-18): 2 µM (≈ 1.17 µg/mL)
MIC ([1]; strain KP-256-18): 4 µM (≈ 2.34 µg/mL)
MIC ([1]; strain KP-257-18): 8 µM (≈ 4.69 µg/mL)
MIC ([1]; strain KP-262-18): 4 µM (≈ 2.34 µg/mL)
MIC ([1]; strain KP-270-18): 4 µM (≈ 2.34 µg/mL)
MIC ([1]; strain KP-B42-15): < 2 µM
MIC ([1]; strain KP-B53-15): 2 µM (≈ 1.17 µg/mL)
MIC ([1]; strain KP-B73-15): 2 µM (≈ 1.17 µg/mL)
MIC ([1]; strain KP-B77-15): < 2 µM
MIC ([1]; strain KP-B1725-18): 2 µM (≈ 1.17 µg/mL)
